In US20160158307A1, “Potent and Efficient Cytotoxic Peptides and Antibody-Drug Conjugates thereof and Their Synthesis” (priority 2014, published 2016) one finds IC50 data, which are given here for 14 molecules.

What all share (assay type): cell-based, Human
One assay has as its system Hela. The assay can be described thus: In vitro cell assay (Cell Titer Glo), Hela. The conditions noted are these: 6 days exposure. On the procedure: (§1) In vitro cell assay is performed in a 96 well micro titer plate. Human tumor cell lines Hela, A549, MCF-7, HCC-1954 and SK-BR-3 are obtained from ATCC (American Type Culture Collection).
The cells were harvested respectively during the logarithmic growth period and counted with hemocytometer. The cell viability was over 98% by trypan blue exclusion. 90 μl of cell suspensions were added in to 96-well plates, the final cell density was reached to 3000 cells/well. Plates were incubated for 96 hours at 37° C., and 5% CO2.
(§2) To each well was added 10 μL, of DMSO diluted compound (10×). For the sentinel base T0 plate, to each well was added 100 μL Cell Titer Gloand the luminescence signals with Envision reading were recorded.
(§3) […] Plates are read with Envision after adding Cell Titer Glo to each well. IC50 values were calculated using GraphPad Prism 5.
(In ATP-based viability assays light output follows the ATP content of the culture.)

A further assay concerns A549. Nature of the assay: In vitro cell assay (Cell Titer Glo), A549. The procedure: as §1
The cells were harvested respectively during the logarithmic growth period and counted with hemocytometer. The cell viability was over 98% by trypan blue exclusion. 90 μl of cell suspensions were added in to 96-well plates, the final cell density was reached to 3000 cells/well. […]
as §2, §3

The subject of another assay is HCC1954. Nature of the assay: In vitro cell assay (Cell Titer Glo), HCC1954. To be noted: 6 days exposure. The procedure:
as §1
The cells were harvested respectively during the logarithmic growth period and counted with hemocytometer. […] 90 μl of cell suspensions were added in to 96-well plates, the final cell density was reached to 3000 cells/well. […]
as §2, §3

For the next assay, the system named is SK-BR-3. The assay can be described thus: In vitro cell assay (Cell Titer Glo), SK-BR-3. The conditions noted are these: 6 days exposure. The procedure: as §1
(§4) The cells were harvested respectively during the logarithmic growth period and counted with hemocytometer. […] 90 μl of cell suspensions were added in to 96-well plates, the final cell density was reached to 3000 cells/well. Plates were incubated for 96 hours at 37° C., and 5% CO2.
as §2, §3

A further assay relates to MCF-7. Nature of the assay: In vitro cell assay (Cell Titer Glo), MCF-7. On the procedure:
as §1, §4, §2, §3

The mark [1] stands for this setting: Homo sapiens, HeLa, 144 h, Table 2.
[2] abbreviates: Homo sapiens, HCC1954, 144 h, Table 2.
[3] abbreviates: Homo sapiens, SK-BR-3, 144 h, Table 2.
The mark [4] stands for this setting: Homo sapiens, HeLa, 144 h, Table 01.
The mark [5] stands for this setting: Homo sapiens, HCC1954, 144 h, Table 01.
Setting [6] is: Homo sapiens, SK-BR-3, 144 h, Table 01.
Setting [7] is: Table 3, payloads and related ADCs, Her2 positive.

Numbered stars: 1 amine (or outer) side, 2 acyl side, 3 side chain; on linkers, the order of the positions; unused ones are H or OH. Square brackets hold non-standard residues; d marks the D form. Peptide text beside a SMILES is read from it. * marks the point of attachment. Butanoyl(3R-OMe,4S-NMe,4-Cy) = CO[C@H](CC(=O)[*:2])[C@H](C1CCCCC1)N(C)[*:1]; Dolaproine = CO[C@@H]([C@@H]1CCCN1)[C@@H](C)C(=O)O; X2 = CO[C@H](CC(=O)[*:2])[C@H](C1CCCC1)N(C)[*:1]; Dil = CC[C@H](C)[C@H](NC)[C@@H](CC(=O)O)OC; X1 = C[C@@H](N*)[C@@H](O)c1ccccc1; NMeV = CN[C@H](C(=O)O)C(C)C; Aib = CC(C)(N)C(=O)O; OtBu = CC(C)(C)O*

For the molecule `N.N.[Cl][Pt][Cl]` [Cisplatin, reference compound], the IC50 was 182 nM with Hela (Table 01); 182 nM in the assay on Hela (Table 2); 2830 nM in the assay on A549 (Table 01, 6 days exposure); 2830 nM in the assay on A549 (Table 2, 6 days exposure); 3270 nM with HCC1954 (Table 01); 3270 nM in the assay on HCC1954 (Table 2). The IC50 worked out at 854 nM in the assay with SK-BR-3 (Table 01); 854 nM in the assay on SK-BR-3 (Table 2); 3550 nM with MCF-7 (Table 01, 6 days exposure); 3550 nM in the assay with MCF-7 (Table 2, 6 days exposure).

Take `CO[C@H]([C@@H](C)C(=O)N[C@H](C)[C@@H](O)c1ccccc1)[C@@H]1CCCN1C(=O)C[C@@H](OC)[C@H](C1CCCC1)N(C)C(=O)[C@@H](NC(=O)C(C)(C)N)C(C)C` [Compound 17, (S)-2-(2-amino-2-methylpropanamido)-N-((1S,2R)-1-cyclopentyl-4-((S)-2-((1R,2R)-3-((1S,2R)-1-hydroxy-1-phenylpropan-2-ylamino)-1-methoxy-2-methyl-3-oxopropyl)pyrrolidin-1-yl)-2-methoxy-4-oxobutyl)-N,3-dimethylbutanamide]: the IC50 was determined as 1.56 nM in the assay on Hela (setting [1]); 6.32 nM in the assay on A549 (Homo sapiens, A549, Table 2); 0.623 nM in the assay with HCC1954 (setting [2]); 0.839 nM with SK-BR-3 (setting [3]); 4.75 nM with MCF-7 (Homo sapiens, MCF7, Table 2).

As for `CO[C@H]([C@@H](C)C(=O)N[C@H](C)[C@@H](O)c1ccccc1)[C@@H]1CCCN1C(=O)C[C@@H](OC)[C@H](C1CCCCC1)N(C)C(=O)[C@@H](NC(=O)C(C)(C)N)C(C)C` [Compound 18, (S)-2-(2-amino-2-methylpropanamido)-N-((1S,2R)-1-cyclohexyl-4-((S)-2-((1R,2R)-3-((1S,2R)-1-hydroxy-1-phenylpropan-2-ylamino)-1-methoxy-2-methyl-3-oxopropyl)pyrroli-din-1-yl)-2-methoxy-4-oxobutyl)-N,3-dimethylbutanamide], the IC50 in the assay with Hela (setting [1]) turned out to be 0.478 nM; with A549 (Homo sapiens, A549, Table 2), 1.14 nM; in the assay on HCC1954 (setting [2]), 0.466 nM; with SK-BR-3 (setting [3]), 0.805 nM; in the assay with MCF-7 (Homo sapiens, MCF7, Table 2), 3.19 nM.

As for `CO[C@H]([C@@H](C)C(=O)N[C@@H](Cc1ccccc1)C(=O)OC(C)(C)C)[C@@H]1CCCN1C(=O)C[C@@H](OC)[C@H](C1CCCC1)N(C)C(=O)[C@@H](NC(=O)C(C)(C)N)C(C)C` [Compound 21, (S)-tert-butyl2-((2R,3R)-3-((S)-1-((3R,4S)-4-((S)-2-(2-amino-2-methylpropanamido)-N,3-dimethylbutanamido)-4-cyclopentyl-3-methoxybutanoyl)pyrrolidin-2-yl)-3-methoxy-2-methylpropanamido)-3-phenylpropanoate] (H-[Aib]V[X2][Dolaproine]F-OtBu), the IC50 in the assay on Hela (setting [1]) was 0.563 nM; in the assay on A549 (Homo sapiens, A549, Table 2), 1.13 nM; in the assay on HCC1954 (setting [2]), 0.296 nM; in the assay on SK-BR-3 (setting [3]), 0.223 nM; with MCF-7 (Homo sapiens, MCF7, Table 2) it was 1.3 nM.

With `CO[C@H]([C@@H](C)C(=O)N[C@@H](Cc1ccccc1)C(=O)OC(C)(C)C)[C@@H]1CCCN1C(=O)C[C@@H](OC)[C@H](C1CCCCC1)N(C)C(=O)[C@@H](NC(=O)C(C)(C)N)C(C)C` [Compound 22, (S)-tert-butyl-2-((2R,3R)-3-((S)-1-((3R,4S)-4-((S)-2-(2-amino-2-methylpropanamido)-N, 3-dimethylbutanamido)-4-cyclohexyl-3-methoxybutanoyl)pyrrolidin-2-yl)-3-methoxy-2-methylpropanamido)-3-phenylpropanoate] (H-[Aib]V[Butanoyl(3R-OMe,4S-NMe,4-Cy)][Dolaproine]F-OtBu), the IC50 with Hela (setting [1]) was 0.567 nM; in the assay with A549 (Homo sapiens, A549, Table 2), 1.08 nM; in the assay on HCC1954 (setting [2]), 0.112 nM; in the assay with SK-BR-3 (setting [3]), 0.066 nM; with MCF-7 (Homo sapiens, MCF7, Table 2) it was 0.529 nM.

`CO[C@H]([C@@H](C)C(=O)N[C@@H](Cc1ccccc1)c1nccs1)[C@@H]1CCCN1C(=O)C[C@@H](OC)[C@H](C1CCCC1)N(C)C(=O)[C@@H](NC(=O)C(C)(C)N)C(C)C` [Compound 23]: the IC50 in the assay on Hela (setting [1]) was found to be 0.484 nM; with A549 (Homo sapiens, A549, Table 2) it was 2.83 nM; in the assay on HCC1954 (setting [2]), 0.405 nM; with SK-BR-3 (setting [3]), 0.693 nM; with MCF-7 (Homo sapiens, MCF7, Table 2), 2.9 nM.

With `CO[C@H]([C@@H](C)C(=O)N[C@@H](Cc1ccccc1)c1nccs1)[C@@H]1CCCN1C(=O)C[C@@H](OC)[C@H](C1CCCCC1)N(C)C(=O)[C@@H](NC(=O)C(C)(C)N)C(C)C` [Compound 24, (S)-2-(2-amino-2-methylpropanamido)-N-((1S,2R)-1-cyclohexyl-2-methoxy-4-((S)-2-((1R,2R)-1-methoxy-2-methyl-3-oxo-3-((S)-2-phenyl-1-(thiazol-2-yl)ethylamino)propyl)pyrrolidin-1-yl)-4-oxobutyl)-N,3-dimethylbutanamide], the IC50 in the assay on Hela (setting [1]) was found to be 0.571 nM; with A549 (Homo sapiens, A549, Table 2), 3.34 nM; in the assay with HCC1954 (setting [2]), 0.31 nM; in the assay with SK-BR-3 (setting [3]), 0.524 nM; in the assay on MCF-7 (Homo sapiens, MCF7, Table 2), 1.99 nM.

For the molecule `CN[C@H](C(=O)N[C@H](C(=O)N(C)[C@@H](C1CCCC1)[C@@H](CC(=O)N1CCC[C@H]1[C@H](OC)[C@@H](C)C(=O)N[C@H](C)[C@@H](O)c1ccccc1)OC)C(C)C)C(C)C` [Compound 33], the IC50 was 0.43 nM in the assay with Hela (setting [4]); 2.05 nM in the assay on A549 (Homo sapiens, A549, Table 01); 0.146 nM with HCC1954 (setting [5]); 0.381 nM in the assay with SK-BR-3 (setting [6]); 1.36 nM in the assay on MCF-7 (Homo sapiens, MCF7, Table 01).

Take `CN[C@H](C(=O)N[C@H](C(=O)N(C)[C@@H](C1CCCCC1)[C@@H](CC(=O)N1CCC[C@H]1[C@H](OC)[C@@H](C)C(=O)N[C@H](C)[C@@H](O)c1ccccc1)OC)C(C)C)C(C)C` [Compound 34]: the IC50 turned out to be 0.391 nM in the assay on Hela (setting [4]); 1.67 nM with A549 (Homo sapiens, A549, Table 01); 0.192 nM with HCC1954 (setting [5]); 0.333 nM in the assay on SK-BR-3 (setting [6]); 1.44 nM with MCF-7 (Homo sapiens, MCF7, Table 01).

Turning to `CN[C@H](C(=O)N[C@H](C(=O)N(C)[C@@H](C1CCCC1)[C@@H](CC(=O)N1CCC[C@H]1[C@H](OC)[C@@H](C)C(=O)N[C@@H](Cc1ccccc1)c1nccs1)OC)C(C)C)C(C)C` [Compound 35], the IC50 came to 0.102 nM in the assay on Hela (setting [4]); 0.68 nM in the assay with A549 (Homo sapiens, A549, Table 01); 0.119 nM with HCC1954 (setting [5]); 0.191 nM in the assay with SK-BR-3 (setting [6]); 0.914 nM in the assay on MCF-7 (Homo sapiens, MCF7, Table 01).

For the molecule `CN[C@H](C(=O)N[C@H](C(=O)N(C)[C@@H](C1CCCCC1)[C@@H](CC(=O)N1CCC[C@H]1[C@H](OC)[C@@H](C)C(=O)N[C@@H](Cc1ccccc1)c1nccs1)OC)C(C)C)C(C)C` [Compound 36], the IC50 stood at 0.143 nM with Hela (setting [4]); 0.567 nM in the assay on A549 (Homo sapiens, A549, Table 01); 0.103 nM with HCC1954 (setting [5]); 0.197 nM in the assay with SK-BR-3 (setting [6]); 0.841 nM with MCF-7 (Homo sapiens, MCF7, Table 01).

As for `CN[C@H](C(=O)N[C@H](C(=O)N(C)[C@@H](C1CCCC1)[C@@H](CC(=O)N1CCC[C@H]1[C@H](OC)[C@@H](C)C(=O)N[C@@H](Cc1ccccc1)C(=O)OC(C)(C)C)OC)C(C)C)C(C)C` [Compound 37] (H-[NMeV]V[X2][Dolaproine]F-OtBu), the IC50 with Hela (setting [4]) amounted to 0.198 nM; in the assay on A549 (Homo sapiens, A549, Table 01), 0.863 nM; with HCC1954 (setting [5]), 0.095 nM; in the assay with SK-BR-3 (setting [6]), 0.118 nM; in the assay with MCF-7 (Homo sapiens, MCF7, Table 01) it was 0.456 nM.

For `CN[C@H](C(=O)N[C@H](C(=O)N(C)[C@@H](C1CCCCC1)[C@@H](CC(=O)N1CCC[C@H]1[C@H](OC)[C@@H](C)C(=O)N[C@@H](Cc1ccccc1)C(=O)OC(C)(C)C)OC)C(C)C)C(C)C` [Compound 38] (H-[NMeV]V[Butanoyl(3R-OMe,4S-NMe,4-Cy)][Dolaproine]F-OtBu), the IC50 with Hela (setting [4]) amounted to 0.078 nM; with A549 (Homo sapiens, A549, Table 01), 0.275 nM; in the assay on HCC1954 (setting [5]), 0.128 nM; with SK-BR-3 (setting [6]), 0.097 nM; with MCF-7 (Homo sapiens, MCF7, Table 01) it was 0.642 nM.

`CC[C@H](C)[C@@H]([C@@H](CC(=O)N1CCC[C@H]1[C@H](OC)[C@@H](C)C(=O)N[C@H](C)[C@@H](O)c1ccccc1)OC)N(C)C(=O)[C@@H](NC(=O)[C@@H](NC)C(C)C)C(C)C` [MMAE, monomethylauristatin E, reference compound] (H-[NMeV]V[Dil][Dolaproine]-X1): the IC50 in the assay with Hela (Table 01) turned out to be 0.1 nM; in the assay with A549 (Table 01, 6 days exposure) it was 0.518 nM; with HCC1954 (Table 01) it was 0.073 nM; in the assay on HCC1954 (setting [7]), 0.073 nM; with SK-BR-3 (Table 01), 0.103 nM; with SK-BR-3 (setting [7]) it was 0.103 nM. Also, the IC50 in the assay on MCF-7 (Table 01, 6 days exposure) amounted to 0.321 nM; in the assay on MCF-7 (Table 3, payloads and related ADCs, 6 days exposure, does not over-express Her2), 0.321 nM.

Usually IC50 stands for the concentration needed to halve the response being measured.
